Results taken from patent US20260250250A1, “3-(SULPHONYL OR SULFONIMIDOYL)PROP-2-EN-1-YL]-2-OXO-1,2-DIHYDROPYRIDINE-3-CARBOXAMIDE DERIVATIVES” (Flinder Therapeutics B.V., priority 2022, published 2026).

What was measured:
[1] = biological target: T1, human E3 ubiquitin-protein ligase RNF31 (HOIP) (Homo sapiens, UniProt Q96EP0); experiment: Cell-free HTRF-based HOIP inhibition assay; assay type: biochemical
T1 sequence (Q96EP0 695-1072 limits assumed): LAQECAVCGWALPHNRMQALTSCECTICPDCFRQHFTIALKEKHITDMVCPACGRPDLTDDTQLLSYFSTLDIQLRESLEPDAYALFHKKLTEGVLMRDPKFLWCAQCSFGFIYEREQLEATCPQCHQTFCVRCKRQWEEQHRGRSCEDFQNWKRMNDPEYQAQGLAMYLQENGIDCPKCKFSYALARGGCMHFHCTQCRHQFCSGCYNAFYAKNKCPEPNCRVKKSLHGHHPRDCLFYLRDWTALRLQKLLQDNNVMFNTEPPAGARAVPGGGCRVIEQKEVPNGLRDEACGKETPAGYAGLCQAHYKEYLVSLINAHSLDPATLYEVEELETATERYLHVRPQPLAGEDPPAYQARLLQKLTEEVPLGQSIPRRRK
Method: This assay was performed in the following steps: • a) synthesis of recombinant fragment of human E3 ubiquitin-protein ligase RNF31 (HOIP), expressed with purity >90% in E. coli system (the protein was prepared as 1 mg/mL stock in a standard formulation); • b) incubation of the compounds in a typical concentration range: 100-0.005 μM, at a final DMSO conc. 1% with a mixture of HOIP and ubiquitin activating enzyme E1 at 25° C., for 1 h at 25° C.; • c) followed by addition of a ubiquitination solution including E2 and substrates (the reaction proceeds for 2.5 h at 25° C.); and • d) HTRF detection was performed using a PHERAstar FSX (BMG Labtech) plate reader (excitation at 337 nm, dual emissions at 665 and 620 nm).

NF-κB signaling pathway = experiment: Cell-based dual luciferase NF-κB reporter assay (HEK293 cells, TNF stimulated); conditions: Homo sapiens, HEK293
Method: Dual-luciferase reporter assay was designed to find inhibitors of HOIP affecting NF-κB signaling pathway. The assay was performed in HEK293 cells which were transfected with plasmids coding for Firefly and NanoLuc luciferases. The NanoLuc luciferase plasmid contains NF-κB response element which determines its expression.
The assay was run following standard dual-luciferase protocols. The assay consists of a few steps: • compounds were dispensed at a concentration range: 100-0.005 μM with a final DMSO concentration of 1% of final volume (25 μL); • cells were stimulated after 30 min with 2.5 ng/mL TNF; and • after 6 h Firefly and NanoLuc luciferase activities are determined according to the procedure described by the manufacturer of Nano-Glo Dual-Luciferase Reporter Assay System.

[2] = tested on: bladder carcinoma RT4 cell line; experiment: TNF-α-induced cytotoxicity assay (CellTiter-Glo viability); assay type: cell-based; conditions: Homo sapiens, RT-4, 72 h
Method: A viability assay, using bladder carcinoma RT4 cell line, was used for identifying the potential inhibitory effect of tested compounds on HOIP activity. The viability was determined by CellTiter-Glo Luminescent Cell Viability Assay (G7571, Promega) which measures the ability of generating a luminescent signal proportional to the amount of ATP present in living cells. The assay consists of a few steps: • a) the cells were routinely sub cultivated twice a week with standard complete growth medium composition; • b) cells were preparated for the assay by creating a cell suspension at the density of 0.05 mln cells/mL and dispensed into plates (ViewPlate-384, PerkinElmer) resulting in 1000 cells/well; • c) cells were stimulated with 1.25 ng/mL TNFα and with compounds and incubated for 72 h at 37° C. in the atmosphere with 5% CO2; and • d) for detection cytotoxicity was measured with CellTiter-Glo® Luminescent Cell Viability Assay based on the method described by the manufacturer.

| SMILES | IC50 [1] | IC50 (NF-κB signaling pathway) | IC50 [2] |
| --- | --- | --- | --- |
| CCOc1ccc(S(=N)(=O)/C=C/CNC(=O)c2cc3c([nH]c2=O)CCCC3)cc1 (stereo not drawn) [Example 62, N-[(2E)-3-[(4-ethoxyphenyl)(imino)oxo-λ^6-sulfanyl]prop-2-en-1-yl]-2-oxo-1,2,5,6,7,8-hexahydroquinoline-3-carboxamide] | – | ≤ 1000 nM | ≤ 1000 nM |
| CC(=O)Nc1ccc(S(=N)(=O)/C=C/CNC(=O)c2cc3c([nH]c2=O)CCCC3)cc1 (stereo not drawn) [Example 163, N-[(2E)-3-[(4-acetamidophenyl)(imino)oxo-λ^6-sulfanyl]prop-2-en-1-yl]-2-oxo-1,2,5,6,7,8-hexahydroquinoline-3-carboxamide] | ≤ 1000 nM | – | ≤ 100000 nM |
| CN(C)c1cccc(S(=N)(=O)/C=C/CNC(=O)c2cc3c([nH]c2=O)CCCC3)c1 (stereo not drawn) [Example 165, N-[(2E)-3-{[3-(dimethylamino)phenyl](imino)oxo-λ^6-sulfanyl}prop-2-en-1-yl]-2-oxo-1,2,5,6,7,8-hexahydroquinoline-3-carboxamide] | ≤ 1000 nM | – | ≤ 1000 nM |
| N=S(=O)(/C=C/CNC(=O)c1cc2c([nH]c1=O)CCCC2)c1ccc2c(c1)CCO2 (stereo not drawn) [Example 167, N-[(2E)-3-[(2,3-dihydro-1-benzofuran-5-yl)(imino)oxo-λ^6-sulfanyl]Prop-2-en-1-yl]-2-oxo-1,2,5,6,7,8-hexahydroquinoline-3-carboxamide] | ≤ 1000 nM | – | ≤ 1000 nM |
| N=S(=O)(/C=C/CNC(=O)c1cc2c([nH]c1=O)CCCC2)c1cccc(OC(F)(F)F)c1 (stereo not drawn) [Example 168, N-[(2E)-3-[imino(oxo)[3-(trifluoromethoxy)phenyl]-λ^6-sulfanyl]prop-2-en-1-yl]-2-oxo-1,2,5,6,7,8-hexahydroquinoline-3-carboxamide] | ≤ 100 nM | – | ≤ 1000 nM |
| N#Cc1cc(S(=N)(=O)/C=C/CNC(=O)c2cc3c([nH]c2=O)CCCC3)ccc1N1CCCCC1 (stereo not drawn) [Example 173, N-[(2E)-3-{[3-cyano-4-(piperidin-1-yl)phenyl](imino)oxo-λ^6-sulfanyl}prop-2-en-1-yl]-2-oxo-1,2,5,6,7,8-hexahydroquinoline-3-carboxamide] | ≤ 100 nM | – | ≤ 1000 nM |
| CNc1ccc(S(=N)(=O)/C=C/CNC(=O)c2cc3c([nH]c2=O)CCCC3)cc1 (stereo not drawn) [Example 174, N-[(2E)-3-{imino[4-(methylamino)phenyl]oxo-λ^6-sulfanyl}prop-2-en-1-yl]-2-oxo-1,2,5,6,7,8-hexahydroquinoline-3-carboxamide] | ≤ 1000 nM | – | ≤ 1000 nM |
| COc1ccc(S(=N)(=O)/C=C/CNC(=O)c2cc3c([nH]c2=O)CCN(C(=O)OC2CCC(F)(F)CC2)C3)cc1F (stereo not drawn) [Example 183, 4,4-difluorocyclohexyl 3-{[(2E)-3-[(3-fluoro-4-methoxyphenyl) (imino)oxo-λ^6-sulfanyl]prop-2-en-1-yl]carbamoyl}-2-oxo-1,2,5,6,7,8-hexahydro-1,6-naphthyridine-6-carboxylate] | ≤ 100 nM | – | ≤ 10000 nM |
| COc1ccc(S(=N)(=O)/C=C/CNC(=O)c2cc3c([nH]c2=O)CCN(C(=O)OC2CCCCC2)C3)cc1F (stereo not drawn) [Example 184, cyclohexyl 3-{[(2E)-3-[(3-fluoro-4-methoxyphenyl)(imino)oxo-λ^6-sulfanyl]prop-2-en-1-yl]carbamoyl}-2-oxo-1,2,5,6,7,8-hexahydro-1,6-naphthyridine-6-carboxylate] | ≤ 100 nM | – | ≤ 1000 nM |
| COc1ccc(S(=N)(=O)/C=C/CNC(=O)c2cc3c([nH]c2=O)CCN(CC2CC2)C3)cc1F (stereo not drawn) [Example 185, 6-(cyclopropylmethyl)-N-[(2E)-3-[(3-fluoro-4-methoxyphenyl) (imino)oxo-λ^6-sulfanyl]prop-2-en-1-yl]-2-oxo-1,2,5,6,7,8-hexahydro-1,6-naphthyridine-3-carboxamide] | ≤ 10000 nM | – | ≤ 100000 nM |

The next lines start with results.

| IC50 [1] | IC50 (NF-κB signaling pathway) | SMILES | IC50 [2] |
| --- | --- | --- | --- |
| ≤ 10000 nM | ≤ 10000 nM | CC(C)(C)c1ccc(S(=O)(=O)/C=C/CNC(=O)c2cc3c([nH]c2=O)CCCC3)cc1 [Example 50, N-[(2E)-3-(4-tert-butylbenzenesulfonyl)prop-2-en-1-yl]-2-oxo-1,2,5,6,7,8-hexahydroquinoline-3-carboxamide] | – |
| – | ≤ 1000 nM | COc1ccc(S(=N)(=O)/C=C/CNC(=O)c2cc3c([nH]c2=O)CCCC3)cc1 (stereo not drawn) [Example 57, N-[(2E)-3-[imino(4-methoxyphenyl)oxo-λ^6-sulfanyl]prop-2-en-1-yl]-2-oxo-1,2,5,6,7,8-hexahydroquinoline-3-carboxamide] | ≤ 1000 nM |
| – | ≤ 1000 nM | CC(C)(C)c1ccc(S(=N)(=O)/C=C/CNC(=O)c2cc3c([nH]c2=O)CCCC3)cc1 (stereo not drawn) [Example 61, N-[(2E)-3-[(4-tert-butylphenyl)(imino)oxo-λ^6-sulfanyl]prop-2-en-1-yl]-2-oxo-1,2,5,6,7,8-hexahydroquinoline-3-carboxamide] | ≤ 1000 nM |
| ≤ 100 nM | – | N=S(=O)(/C=C/CNC(=O)c1cc2c([nH]c1=O)CCCC2)c1ccc(N2CCCC2)cc1 (stereo not drawn) [Example 162, N-[(2E)-3-[imino(oxo)[4-(Pyrrolidin-1-yl)phenyl]-λ^6-sulfanyl]prop-2-en-1-yl]-2-oxo-1,2,5,6,7,8-hexahydroquinoline-3-carboxamide] | ≤ 1000 nM |
| ≤ 100 nM | – | N=S(=O)(/C=C/CNC(=O)c1cc2c([nH]c1=O)CCCC2)c1ccc(OC2CC2)cc1 (stereo not drawn) [Example 164, N-[(2E)-3-[(4-cyclopropoxyphenyl)(imino)oxo-λ^6-sulfanyl]prop-2-en-1-yl]-2-oxo-1,2,5,6,7,8-hexahydroquinoline-3-carboxamide] | ≤ 1000 nM |
| ≤ 100 nM | – | N=S(=O)(/C=C/CNC(=O)c1cc2c([nH]c1=O)CCCC2)c1ccc(C2CCCCC2)cc1 (stereo not drawn) [Example 166, N-[(2E)-3-[(4-cyclohexylphenyl)(imino)oxo-λ^6-sulfanyl]prop-2-en-1-yl]-2-oxo-1,2,5,6,7,8-hexahydroquinoline-3-carboxamide] | ≤ 1000 nM |
| ≤ 1000 nM | – | COc1ccc(CN2CCc3[nH]c(=O)c(C(=O)NC/C=C/S(=N)(=O)c4ccc(OC)c(F)c4)cc3C2)cc1 (stereo not drawn) [Example 171, N-[(2E)-3-[(3-fluoro-4-methoxyphenyl)(imino)oxo-λ^6-sulfanyl]prop-2-en-1-yl]-6-[(4-methoxyphenyl)methyl]-2-oxo-1,2,5,6,7,8-hexahydro-1,6-naphthyridine-3-carboxamide] | ≤ 1000 nM |
| ≤ 1000 nM | – | COc1ccc(S(=N)(=O)/C=C/CNC(=O)c2cc3c([nH]c2=O)CCC(F)C3)cc1F (stereo not drawn) [Example 172, 6-fluoro-N-[(2E)-3-[(3-fluoro-4-methoxyphenyl)(imino)oxo-λ^6-sulfanyl]prop-2-en-1-yl]-2-oxo-1,2,5,6,7,8-hexahydroquinoline-3-carboxamide] | ≤ 10000 nM |
| ≤ 100 nM | – | N#Cc1cc(S(=N)(=O)/C=C/CNC(=O)c2cc3c([nH]c2=O)CCCC3)ccc1N1CCOCC1 (stereo not drawn) [Example 175, N-[(2E)-3-{[3-cyano-4-(morpholin-4-yl)phenyl](imino)oxo-λ^6-sulfanyl}prop-2-en-1-yl]-2-oxo-1,2,5,6,7,8-hexahydroquinoline-3-carboxamide] | ≤ 10000 nM |
| ≤ 100 nM | – | CN1CCCc2cc(S(=N)(=O)/C=C/CNC(=O)c3cc4c([nH]c3=O)CCCC4)ccc21 (stereo not drawn) [Example 177, N-[(2E)-3-[imino(1-methyl-1,2,3,4-tetrahydroquinolin-6-yl)oxo-A*-sulfanyl]prop-2-en-1-yl]-2-oxo-1,2,5,6,7,8-hexahydroquinoline-3-carboxamide] | ≤ 1000 nM |
| ≤ 1000 nM | – | COc1ccc(S(=N)(=O)/C=C/CNC(=O)c2ccc[nH]c2=O)cc1F (stereo not drawn) [Example 186, N-[(2E)-3-[(3-fluoro-4-methoxyphenyl)(imino)oxo-λ^6-sulfanyl]prop-2-en-1-yl]-2-oxo-1,2-dihydropyridine-3-carboxamide] | ≤ 10000 nM |
